Test results published in patent US20040091578A1 (priority 2001, published 2004).

Assays:
glutaredoxin = biological target: T1, glutaredoxin (Escherichia coli, UniProt P68688); assay: Reduction by glutaredoxin, mBBr/SDS-PAGE with densitometric scanning; assay type: biochemical
T1 sequence (P68688 1-85): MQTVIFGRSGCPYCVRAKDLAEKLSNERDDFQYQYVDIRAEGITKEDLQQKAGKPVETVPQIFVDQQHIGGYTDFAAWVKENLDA
Description: Direct reduction of the proteins under study was determined by a modification of the method of Crawford et al. (Crawford, N. A. et al. (1989), Arch. Biochem. Biophys. 271:223-239). The reaction was carried out in 100 mM potassium phosphate buffer, pH 7.1, containing 10 mM EDTA and 16% glycerol in a final volume of 0.1 ml. As indicated, 0.7 μg (0.1 μM) NTR and 1 μg (0.8 μM) thioredoxin (both routinely from E. coli were added to 70 μl of the buffer solution containing 1 mM NADPH and 10 μg (2 to 17 μM) of target protein. When thioredoxin was reduced by dithiothreitol (DTT, 0.5 mM), NADPH and NTR were omitted. Assays with reduced glutathione were performed similarly, but at a final concentration of 1 mM. After incubation for 20 min, 100 nmoles of mBBr were added and the reaction was continued for another 15 min. To stop the reaction and derivatize excess mBBr, 10 μl of 10% SDS and 10 μl of 100 mM β-mercaptoethanol were added and the samples were then applied to the gels. […]
This ability was tested, using glutaredoxin from E. coli and the seed proteins currently under study. Reduction activity was monitored by the mBBr/SDS polyacrylamide gel electrophoresis procedure coupled with densitometric scanning.

Fructose Bisphosphatase = biological target: T2, Fructose Bisphosphatase (Spinacia oleracea, UniProt P22418); assay: Activation of chloroplast fructose bisphosphatase by thioredoxin-reduced proteins; assay type: biochemical, spinach; conditions: 20 μg protein, 1 μg E. coli thioredoxin, DTT; corrected for thioredoxin alone
T2 construct: purified from leaves of corn (Jacquot, J.-P. et al. (1981), Plant Physiol. 68:300-304) and spinach; from tissue; host or cells: spinach leaves
T2 sequence (P22418 58-415): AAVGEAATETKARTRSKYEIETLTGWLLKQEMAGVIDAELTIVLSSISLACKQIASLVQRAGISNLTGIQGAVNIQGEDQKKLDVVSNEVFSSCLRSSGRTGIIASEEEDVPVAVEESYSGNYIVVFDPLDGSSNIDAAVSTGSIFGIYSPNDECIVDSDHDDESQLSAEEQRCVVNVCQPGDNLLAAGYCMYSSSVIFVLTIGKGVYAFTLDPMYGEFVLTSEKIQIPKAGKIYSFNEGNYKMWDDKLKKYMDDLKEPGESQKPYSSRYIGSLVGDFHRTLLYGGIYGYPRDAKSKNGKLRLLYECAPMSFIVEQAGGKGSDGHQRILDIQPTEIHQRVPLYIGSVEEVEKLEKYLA
Description: (§1) The NADP-MDH, FBPase, NTR and Thioredoxin h assay methods were according to Florencio, F. J. et al. (1988), Arch. Biochem. Biophys. 266:496-507 with slight modifications as indicated. For enzyme activation assays, the preincubation time was 20 min unless specified otherwise.
(§2) The Wada et al., 1981 protocol was used for assaying NADP-malate dehydrogenase and fructose 1,6 bisphosphatase in the presence of thioredoxin and 2S protein. Assays were conducted under conditions in which the amount of added thioredoxin was sufficient to reduce the castor 2S protein but insufficient to activate the target enzyme appreciably. All assays were at 25° C. Unless otherwise indicated, the thioredoxin and NTR used were from E. coli. The 2S protein was monitored during purification by mBBr/SDS-polyacrylamide gel electrophoresis following its reduction by dithiothreitol and E. coli thioredoxin (Crawford et al., 1989; Kobrehel et al., 1991).

[1] = biological target: T3, NADP-Malate Dehydrogenase (Zea mays, UniProt P15719); assay: Activation of chloroplast NADP-malate dehydrogenase by thioredoxin-reduced proteins; assay type: biochemical, corn; conditions: 20 μg protein with DTT-reduced thioredoxin h
T3 construct: were purified from leaves of corn; from tissue; host or cells: corn leaves
Description: as §1
In one study 20 mM β-mercaptoethanol (β-MET) was used instead of DTT. Following preincubation, NADP-MDH was assayed spectrophoto-metrically.
as §2

T3 sequence (P15719 41-432): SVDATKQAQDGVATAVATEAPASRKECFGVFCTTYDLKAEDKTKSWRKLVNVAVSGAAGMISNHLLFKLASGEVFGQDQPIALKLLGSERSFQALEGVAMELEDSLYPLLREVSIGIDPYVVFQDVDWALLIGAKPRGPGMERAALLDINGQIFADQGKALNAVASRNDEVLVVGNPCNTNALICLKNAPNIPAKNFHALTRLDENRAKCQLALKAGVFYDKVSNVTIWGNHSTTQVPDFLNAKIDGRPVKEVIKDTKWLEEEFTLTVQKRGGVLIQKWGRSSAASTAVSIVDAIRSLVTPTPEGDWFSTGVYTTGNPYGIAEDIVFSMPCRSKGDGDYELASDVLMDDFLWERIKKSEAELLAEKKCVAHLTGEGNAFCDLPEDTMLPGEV

Aprotinin [Bovine lung (Aprotinin)]
percentage reduction by glutaredoxin relative to E. coli thioredoxin (glutaredoxin): not affected | ACTIVITY, FBPase (Fructose Bisphosphatase): 2 nkat/mg | ACTIVITY, NADP-MDH [1]: Trace
